Here are results for 1 compound from PubChem BioAssay AID588598 (Sanford-Burnham Center for Chemical Genomics, 2011).

In general, IC50 refers to the concentration at which inhibition is half-maximal.

This experiment deals with Sentrin-specific protease 6 (Homo sapiens) (UniProt Q9GZR1). Briefly: SENP6 protease inhibitors, SAR follow-up, biochemical, luminescence, set 2 (AID 588598). The following applies: recombinant SENP6, Z-RLRGG-aminoluciferin cleavage, 30 min.

SMILES strings stand for the structures.

Sequence of Sentrin-specific protease 6 (Homo sapiens) (Q9GZR1 628-1112 limits assumed): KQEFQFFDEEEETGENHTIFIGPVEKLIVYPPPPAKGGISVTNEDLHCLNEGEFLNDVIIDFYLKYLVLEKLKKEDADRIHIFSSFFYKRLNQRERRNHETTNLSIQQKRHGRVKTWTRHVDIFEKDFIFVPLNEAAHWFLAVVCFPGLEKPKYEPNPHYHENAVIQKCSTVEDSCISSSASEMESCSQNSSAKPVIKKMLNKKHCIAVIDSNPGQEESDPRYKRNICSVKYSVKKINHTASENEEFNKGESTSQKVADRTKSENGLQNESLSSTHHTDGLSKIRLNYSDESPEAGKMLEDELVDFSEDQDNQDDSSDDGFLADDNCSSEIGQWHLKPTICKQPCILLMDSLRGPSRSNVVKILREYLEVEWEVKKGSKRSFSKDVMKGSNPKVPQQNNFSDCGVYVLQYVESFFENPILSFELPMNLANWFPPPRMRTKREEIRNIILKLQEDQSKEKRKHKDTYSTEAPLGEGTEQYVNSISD

For `O=C(Nc1nc2ccc(Cl)cc2s1)c1cccs1`, the IC50 is 1300 nM.
